US9000022B2 (Exelixis Patent Company LLC, priority 2005, dated 2015)

Test system: LXRα and/or LXRβ
Assay: Co-transfection assay (LXRE luciferase reporter, CV-1 cells)
Type: cell-based, human
Settings: for IC50 or EC50 (potency, activation or inhibition): tested as described in Example 33, IC50 or EC50 for LXRα and/or LXRβ, isoform not specified, read-out: activity (IC50 or EC50 for LXR); for EC50: read-out: activity (IC50 or EC50 for LXR), tested as described in Example 33, isoform not specified
Text: To measure the ability of compounds to activate or inhibit the transcriptional activity of LXR in a cell based assay, the co-transfection assay was used. It has been shown that LXR functions as a heterodimer with RXR. For the co-transfection assay, expression plasmids for LXR and RXR are introduced via transient transfection into mammalian cells along with a luciferase reporter plasmid that contains one copy of a DNA sequence that is bound by LXR-RXR heterodimers (LXRE; Willy, P. et. al. 1995). Treatment of transfected cells with an LXR agonist increases the transcriptional activity of LXR, which is measured by an increase in luciferase activity.
CV-1 African Green Monkey Kidney Cells Co-transfection expression plasmids, comprising full-length LXRα (pCMX-h LXRα, LXRβ (pCMX-hLXRβ), or RXRα (pCMX-RXR), reporter plasmid (LXREx1-Tk-Luciferase), and control (pCMX-Galactosidase expression vector) (Willey et al. Genes & Development 9 1033-1045 (1995)). Transfection reagent such as FuGENE6 (Roche). 1× Cell lysis buffer (1% Triton X 100 (J T Baker X200-07), 10% Glycerol (J T Baker M778-07), 5 mM Ditriotreitol (Quantum Bioprobe DTT03; add fresh before lysing), 1 mM EGTA (Ethylene Glycol-bis(B-Amino ethyl ether)-N,N,N′,N′-Tetracetic Acid) (Sigma E-4378), 25 mM Tricine (ICN 807420) pH 7.8) 1× Luciferase assay buffer (pH at 7.8) (0.73 mM ATP, 22.3 mM Tricine, 0.11 mM EDTA, 33.3 mM DTT) 1× Luciferrin/CoA (11 mM Luciferin, 3.05 mM Coenzyme A, 10 mM HEPES)
CV-1 cells were prepared 24 hours prior to the experiment by plating them into T-175 flasks or 500 cm^2 dishes in order to achieve 70-80% confluency on the day of the transfection. The number of cells to be transfected was determined by the number of plates to be screened. Each 384 well plate requires 1.92×10^6 cells or 5000 cells per well. DNA Transfection Reagent was prepared by mixing the required plasmid DNAs with a cationic lipid transfection reagent FuGENE6 (Roche) by following the instructions provided with the reagents. Optimal DNA amounts were determined empirically per cell line and size of vessel to be transfected. 10-12 mL of media was added to the DNA Transfection Reagent and this mixture was added to the cells after aspirating media from the T175 cm^2 flask. Cells were then incubated at least 5 hours at 37° C. to prepare screening cells.
Luciferase assay reagent was prepared by combining before use (per 10 mL): 10 mL 1× Luciferase assay buffer; 0.54 mL of 1× Luciferrin/CoA; 0.54 mL of 0.2 M Magnesium sulfate
Assay plates were prepared by dispensing 5 μL, of compound per well of a 384 well plate to achieve final compound concentration of 10 μM and no more than 1% DMSO. Media was removed from the screening cells, the cells trypsinized, harvested cells by centrifugation, counted, and plated at a density of approximately 5000 cells per well in the 384 well assay plate prepared above in a volume of about 45 μL. Assay plates containing both compounds and screening cells (50 μL in total volume) were incubated for 20 hours at 37° C.
After incubation with compounds, media was removed from the cells and lysis buffer (30 μL/well) added. After 30 minutes at ambient temperature, luciferase assay buffer (30 μL/well) was added and the assay plates read on a luminometer (PE Biosystems Northstar reader with on-board injectors, or equivalent). Plates were read immediately after addition of luciferase assay buffer.
The LXR/LNRE co-transfection assay can be used to establish the EC50/IC50 values for potency and percent activity or inhibition for efficacy. Efficacy defines the activity of a compound relative to a high control ((N-(3-((4-fluorophenyl)-(naphthalene-2-sulfonyl)amino)propyl)-2,2-dimethylpropionamide)) or a low control (DMSO/vehicle). The dose response curves are generated from an 8 point curve with concentrations differing by ½ LOG units. Each point represents the average of 4 wells of data from a 384 well plate. […]

SMILES | IC50 or EC50 (potency, activation or inhibition) [nM] | EC50 [nM]
CCS(=O)(=O)c1cc(-c2ccc(-n3cc(C(C)(C)O)nc3Cc3c(Cl)cccc3Cl)cc2)ccc1CO [Example 8] | < 1000 | 
CCS(=O)(=O)c1cccc(-c2ccc(-n3cc(C(C)(C)O)nc3Cc3c(F)cccc3Cl)cc2)c1 [Example 10, 2-(2-(2-chloro-6-fluorobenzyl)-1-(3′-(ethylsulfonyl)biphenyl-4-yl)-1H-imidazol-4-yl)propan-2-ol] | < 1000 | 
CCC(O)(CC)c1cn(-c2ccc(-c3cccc(S(=O)(=O)CC)c3)cc2)c(Cc2ccccc2Cl)n1 [Example 14] | < 1000 | 
CCS(=O)(=O)c1cccc(-c2ccc(-n3cc(C(C)(C)O)nc3C(C)(C)c3cccc(Cl)c3Cl)cc2)c1 [Example 22, 2-(2-(2-(2,3-dichloro-phenyl)propan-2-yl)-1-(3′-(ethylsulfonyl)biphenyl-4-yl)-1H-imidazol-4-yl)propan-2-ol] |  | < 1000
Cc1cc(-c2cccc(S(C)(=O)=O)c2)ccc1-n1cc(C(C)(C)O)nc1Cc1cccc(Cl)c1Cl [Example 23, 2-(2-(2,3-dichlorobenzyl)-1-(3-methyl-3′-(methylsulfonyl)biphenyl-4-yl)-1H-imidazol-4-yl)propan-2-ol] |  | < 1000
CCS(=O)(=O)c1cccc(-c2ccc(-n3cc(C(C)(C)O)nc3Cc3cccc(Cl)c3Cl)c(C)c2)c1 [Example 24, 2-(2-(2,3-dichlorobenzyl)-1-(3′-(ethylsulfonyl)-3-methylbiphenyl-4-yl)-1H-imidazol-4-yl)propan-2-ol] |  | < 1000
CC(C)(O)c1cn(-c2ccc(-c3cccc(S(C)(=O)=O)c3)cc2Cl)c(Cc2cccc(Cl)c2Cl)n1 [Example 25, 2-(1-(3-chloro-3′-(methyl-sulfonyl)biphenyl-4-yl)-2-(2,3-dichlorobenzyl)-1H-imidazol-4-yl)propan-2-ol] |  | < 1000
CCS(=O)(=O)c1cccc(-c2ccc(-n3cc(C(C)(C)O)nc3Cc3cccc(Cl)c3Cl)c(Cl)c2)c1 [Example 26, 2-(1-(3-chloro-3′-(ethyl-sulfonyl)biphenyl-4-yl)-2-(2,3-dichlorobenzyl)-1H-imidazol-4-yl)propan-2-ol] |  | < 1000
CC(C)(O)c1cn(-c2ccc(-c3cccc(S(C)(=O)=O)c3)cc2)c(CCc2ccccc2Cl)n1 [Example 27, 2-(2-(2-chlorophenethyl)-1-(3′-(methylsulfonyl)biphenyl-4-yl)-1H-imidazol-4-yl)propan-2-ol] |  | < 1000
CCS(=O)(=O)c1cccc(-c2ccc(-n3cc(C(C)(C)O)nc3CCc3ccccc3Cl)cc2)c1 [Example 28, 2-(2-(2-chlorophenethyl)-1-(3′-(ethylsulfonyl)biphenyl-4-yl)-1H-imidazol-4-yl)propan-2-ol] |  | < 1000
CC(C)(O)c1cn(-c2ccc(-c3ccc(CO)c(S(C)(=O)=O)c3)cc2)c(CCc2ccccc2Cl)n1 [Example 29] | < 1000 | 
CCS(=O)(=O)c1cccc(-c2ccc(-n3cc(C(C)(C)O)nc3-c3cccc4ccccc34)c(Cl)c2)c1 [Example 31, 2-(1-(3-chloro-3′-(ethyl-sulfonyl)biphenyl-4-yl)-2-(naphthalen-1-yl)-1H-imidazol-4-yl)propan-2-ol] | < 1000 | 
CC(C)(O)c1cn(-c2ccc(-c3ccc(CO)c(S(C)(=O)=O)c3)cc2Cl)c(-c2cccc3ccccc23)n1 [Example 32, 2-(1-(3-chloro-4′-(hydroxy-methyl)-3-(methylsulfonyl)biphenyl-4-yl)-2-(naphthalen-1-yl)-1H-imidazol-4-yl)propan-2-ol] | < 1000 | 
CCS(=O)(=O)c1cccc(-c2ccc(-n3cc(C(C)(C)O)nc3-c3nccc4ccccc34)c(Cl)c2)c1 [Example 34, 2-(1-(3-chloro-3′-(ethyl-sulfonyl)biphenyl-4-yl)-2-(isoquinolin-1-yl)-1H-imidazol-4-yl)propan-2-ol] | < 1000 | 
CCS(=O)(=O)c1cccc(-c2ccc(-n3cc(C(C)(C)O)nc3-c3cccc4cnccc34)c(C)c2)c1 [Example 36, 2-(1-(3′-(ethylsulfonyl)-3-methylbiphenyl-4-yl)-2-(isoquinolin-5-yl)-1H-imidazol-4-yl)propan-2-ol] | 1000 to 10000 | 
CCS(=O)(=O)c1cccc(-c2ccc(-n3cc(C(C)(C)O)nc3-c3cnccc3C(F)(F)F)cc2)c1 [Example 38, 2-(1-(3′-(ethylsulfonyl)biphenyl-4-yl)-2-(4-(trifluoromethyl)pyridin-3-yl)-1H-imidazol-4-yl)propan-2-ol] | > 10000 | 

The next lines start with results.

IC50 or EC50 (potency, activation or inhibition) [nM] | SMILES | EC50 [nM]
< 1000 | CC(C)(O)c1cn(-c2ccc(-c3cccc(S(C)(=O)=O)c3)cc2Cl)c(-c2cccc3ccccc23)n1 [Example 30, 2-(1-(3-chloro-3′-(methyl-sulfonyl)biphenyl-4-yl)-2-(naphthalen-1-yl)-1H-imidazol-4-yl)propan-2-ol] | 
< 1000 | CC(C)(O)c1cn(-c2ccc(-c3cccc(S(C)(=O)=O)c3)cc2Cl)c(-c2nccc3ccccc23)n1 [Example 33, 2-(1-(3-chloro-3′-(methyl-sulfonyl)biphenyl-4-yl)-2-(isoquinolin-1-yl)-1H-imidazol-4-yl)propan-2-ol] | 
1000 to 10000 | Cc1cc(-c2cccc(S(C)(=O)=O)c2)ccc1-n1cc(C(C)(C)O)nc1-c1cccc2cnccc12 [Example 35, 2-(2-(isoquinolin-5-yl)-1-(3-methyl-3′-(methylsulfonyl)biphenyl-4-yl)-1H-imidazol-4-yl)propan-2-ol] | 
> 10000 | CC(C)(O)c1cn(-c2ccc(-c3cccc(S(C)(=O)=O)c3)cc2)c(-c2cnccc2C(F)(F)F)n1 [Example 37, 2-(1-(3′-(methylsulfonyl)biphenyl-4-yl)-2-(4-(trifluoromethyl)pyridin-3-yl)-1H-imidazol-4-yl)propan-2-ol] | 
1000 to 10000 | Cc1cc(-c2cccc(S(C)(=O)=O)c2)ccc1-n1cc(C(C)(C)O)nc1-c1cccs1 [Example 41] | 
< 1000 | Cc1cc(-c2cccc(S(C)(=O)=O)c2)ccc1-n1cc(C(C)(C)O)nc1-c1ccc(C)n1C [Example 42, 2-(2-(1,5-dimethyl-1H-pyrrol-2-yl)-1-(3-methyl-3′-(methylsulfonyl)biphenyl-4-yl)-1H-imidazol-4-yl)propan-2-ol] | 
1000 to 10000 | CC(C)(O)c1cn(-c2c(Cl)cccc2Cl)c(-c2ccc(-c3cccc(S(C)(=O)=O)c3)s2)n1 [Example 44, 2-(1-(2,6-dichlorophenyl)-2-(5-(3-(methylsulfonyl)phenyl)thiophen-2-yl)-1H-imidazol-4-yl)propan-2-ol] | 
1000 to 10000 | CCS(=O)(=O)c1cccc(-c2ccc(-c3nc(C(C)(C)O)cn3-c3c(Cl)cccc3Cl)s2)c1 [Example 45, 2-(1-(2,6-dichlorophenyl)-2-(5-(3-(ethylsulfonyl)phenyl)thiophen-2-yl)-1H-imidazol-4-yl)propan-2-ol] | 
< 1000 | CCS(=O)(=O)c1cccc(-c2ccc(-c3nc(C(C)(C)O)cn3-c3c(Cl)cccc3Cl)c(C)c2)c1 [Example 58, 2-(1-(2,6-dichlorophenyl)-2-(3′-(ethylsulfonyl)-3-methylbiphenyl-4-yl)-1H-imidazol-4-yl)propan-2-ol] | 
